Experimental data published in article PMC7052193, “Nanobody-enabled monitoring of kappa opioid receptor states” (Nature Communications, 2020).
Several values for one entry are separate records, joined by “and”; a condition that tells them apart may be missing. Identical values can stand only once. Like-named read-outs stand apart in the source and are kept apart here.

How the values were obtained:
MOR = target: T1, MOR (Homo sapiens, UniProt P35372); test: BRET assay MOR and Nb6; assay type: cell-based; settings: Log [Drug]
T1 construct: expressed in transfected cells; host or cells: HEK 293T (by the general BRET protocol; not repeated for MOR)

KOR [1] = target: T2, KOR (Homo sapiens, UniProt P41145); test: Competition binding with 3H-JDTic in the absence or presence of 5 µM Nb6 or Nb39
ETA [2] = assay type: cell-based, human; settings: ETA-KOR, Log [Drug]
ETA [3] = assay type: cell-based, human; settings: ETA-KOR
KOR [4] = target: T2, KOR; test: Real-time BRET kinetics of KOR–Nb6; assay type: cell-based; settings: for BRET, KOR + Nb6: SalA / Buffer
KOR [5] = target: T2, KOR; test: Real-time BRET kinetics of KOR–Nb39; assay type: cell-based; settings: SalA / Buffer
[6] = target: T3, human KOR containing C-terminal Renilla luciferase (RLuc8) (human, UniProt P41145); test: FRET or BRET; kinetic BRET in HEK 293T cells co-expressing KOR-Rluc and Nb6-mVenus or Nb39-mVenus; 10 µM Sal A, then 10 µM JDTic added at the indicated times; t1/2 from one phase exponential decay; settings: partners not purified
T3 construct: kappa opioid receptor, human, wild type; also called KOR-Rluc; kappa opioid receptor; source: HEK 293T, co-transfected, in live cells; not shown: RLuc8, C-terminal, kept

C[C@@H](NC(=O)[C@@H](N)Cc1ccc(O)cc1)C(=O)NCC(=O)N(C)[C@@H](Cc1ccccc1)C(=O)NCCO [DAMGO]
response (Figure S9b) (MOR; M -6): 34.0976 and 31.8296 and 33.2096
response (Figure S9b) (MOR; M -7): 78.9066 and 72.2446 and 76.3636
response (Figure S9b) (MOR; M -8): 84.8057 and 83.6246 and 84.5411
response (Figure S9b) (MOR; M -9): 92.3096 and 93.4924
response (Figure S9b) (MOR; M -10): 90.9034 and 89.2915 and 90.6654
response (Figure S9b) (MOR; M -11): 93.7193 and 94.9714 and 95.2973
response (Figure S9b) (MOR; M -12): 99.6463 and 100.354

CC[C@H](C)[C@H](NC(=O)[C@H](CCCNC(=N)N)NC(=O)[C@H](CCCNC(=N)N)NC(=O)[C@H](CC(C)C)NC(=O)[C@H](Cc1ccccc1)NC(=O)CNC(=O)CNC(=O)[C@@H](N)Cc1ccc(O)cc1)C(=O)N[C@@H](CCCNC(=N)N)C(=O)N1CCC[C@H]1C(=O)N[C@@H](CCCCN)C(=O)N[C@@H](CC(C)C)C(=O)N[C@@H](CCCCN)C(=O)O [Dynorphin A, 1-13, Dynorphin A (1–13)]
Ki (KOR [1]): 2.43 ± 0.2 nM

CC[C@H](C)[C@H](NC(=O)[C@H](CC(=O)O)NC(=O)[C@H](CC(C)C)NC(=O)[C@H](Cc1c[nH]cn1)NC(=O)[C@@H]1CSSC[C@H](N)C(=O)N[C@@H](CO)C(=O)N[C@H]2CSSC[C@H](NC(=O)[C@H](CCC(=O)O)NC(=O)[C@H](CCCCN)NC(=O)[C@H](CC(=O)O)NC(=O)[C@H](CCSC)NC(=O)[C@H](CC(C)C)NC(=O)[C@H](CO)NC(=O)[C@H](CO)NC2=O)C(=O)N[C@@H](C(C)C)C(=O)N[C@@H](Cc2ccc(O)cc2)C(=O)N[C@@H](Cc2ccccc2)C(=O)N1)C(=O)N[C@H](C(=O)N[C@@H](Cc1c[nH]c2ccccc12)C(=O)O)[C@@H](C)CC [Endothelin-1]
Net BRET G protein activation, source data Figure 5c (ETA [2]; M = -5.5): 8.126 and 14.2188 and 11.7402
Net BRET G protein activation, source data Figure 5c (ETA [2]; M = -6.5): 13.3731 and 8.584 and 11.2246
Net BRET G protein activation, source data Figure 5c (ETA [2]; M = -7.5): 27.9656 and 34.3494 and 31.9455
Net BRET G protein activation, source data Figure 5c (ETA [2]; M = -8.5): 53.981 and 48.3799 and 51.5065
Net BRET G protein activation, source data Figure 5c (ETA [2]; M = -9.5): 73.7875 and 86.5149 and 80.3002
Net BRET G protein activation, source data Figure 5c (ETA [2]; M = -10.5): 94.2005 and 91.2115 and 93.274
Net BRET G protein activation, source data Figure 5c (ETA [2]; M = -11.5): 104.258 and 97.1609 and 101.662
Net BRET G protein activation, source data Figure 5c (ETA [2]; M = -12.5): 100.567 and 115.131
Net BRET receptor and Nb6, source data Figure 5b (ETA [3]; Log [Endothelin-1,] M = -5): 4.499 and 7.7967 and 6.394
Net BRET receptor and Nb6, source data Figure 5b (ETA [3]; Log [Endothelin-1,] M = -6): 5.268 and 6.925 and 6.885
Net BRET receptor and Nb6, source data Figure 5b (ETA [3]; Log [Endothelin-1,] M = -7): 45.5139 and 37.9048 and 42.0353
Net BRET receptor and Nb6, source data Figure 5b (ETA [3]; Log [Endothelin-1,] M = -8): 94.8754 and 92.9034 and 94.0384
Net BRET receptor and Nb6, source data Figure 5b (ETA [3]; Log [Endothelin-1,] M = -9): 99.5856 and 100.414 and 100.568
Net BRET receptor and Nb6, source data Figure 5b (ETA [3]; Log [Endothelin-1,] M = -10): 98.7901 and 95.8099 and 98.252
Net BRET receptor and Nb6, source data Figure 5b (ETA [3]; Log [Endothelin-1,] M = -11): 101.512 and 91.9128 and 97.2504

NC(=O)c1ccc(Oc2ccc(CN3CCC[C@H]3c3cccnc3)cc2)c(F)c1 [LY2459989]
increase of binding affinity in the presence of Nb6 (KOR [1]): ~ 6 fold
Ki (KOR [1]; read-out: Ki ± SEM): 3.4 ± 0.25 nM

O=C(N[C@@H]1C=CC2[C@H]3Cc4ccc(O)c5c4[C@@]2(CCN3CC2CC2)[C@H]1O5)c1cccc(I)c1 (stereo partly shown) [MP1104]
effect of Nb6 on binding affinity (KOR [1]): only slightly affected

COC(=O)[C@@H]1C[C@H](OC(C)=O)C(=O)[C@H]2[C@@]1(C)CC[C@H]1C(=O)O[C@H](c3ccoc3)C[C@]21C [Sal A, Salvinorin A]
t1/2 of decrease in Nb6-KOR BRET (KOR [4]; 10 µM Sal A added): 0.833 ± 0.167 min
BRET, KOR + Nb6 (KOR [4]; time 5 min): 1.409 and 1.4035 and 1.421 and 1.389
BRET, KOR + Nb6 (KOR [4]; time 6 min): 1.298 and 1.281 and 1.268 and 1.228
BRET, KOR + Nb6 (KOR [4]; time 7 min): 1.173 and 1.165 and 1.166 and 1.137
BRET, KOR + Nb6 (KOR [4]; time 8 min): 1.122 and 1.113 and 1.12 and 1.093
BRET, KOR + Nb6 (KOR [4]; time 9 min): 1.088 and 1.0779 and 1.094 and 1.0747
BRET, KOR + Nb6 (KOR [4]; time 10 min): 1.082 and 1.078 and 1.0874 and 1.065
BRET, KOR + Nb6 (KOR [4]; time 11 min): 1.074 and 1.07 and 1.083 and 1.058
BRET, KOR + Nb6 (KOR [4]; time 12 min): 1.074 and 1.063 and 1.076 and 1.058
BRET, KOR + Nb6 (KOR [4]; time 13 min): 1.075 and 1.061 and 1.082 and 1.064
BRET, KOR + Nb6 (KOR [4]; time 14 min): 1.069 and 1.063 and 1.08 and 1.062
BRET, KOR + Nb6 (KOR [4]; time 15 min): 1.083 and 1.067 and 1.08 and 1.061
BRET, KOR + Nb6 (KOR [4]; time 16 min): 1.077 and 1.067 and 1.078 and 1.056
BRET, KOR + Nb6 (KOR [4]; time 17 min): 1.076 and 1.07 and 1.085 and 1.064
BRET, KOR + Nb6 (KOR [4]; time 18 min): 1.081 and 1.07 and 1.082 and 1.068
BRET, KOR + Nb6 (KOR [4]; time 19 min): 1.086 and 1.077 and 1.091 and 1.066
BRET, KOR + Nb6 (KOR [4]; time 20 min): 1.081 and 1.073 and 1.083 and 1.0658
BRET, KOR + Nb6 (KOR [4]; time 21 min): 1.087 and 1.079 and 1.095 and 1.076
BRET, KOR + Nb6 (KOR [4]; time 22 min): 1.074 (2×) and 1.079 and 1.0714
BRET, KOR + Nb6 (KOR [4]; time 23 min): 1.088 and 1.082 and 1.074 and 1.0724
BRET, KOR + Nb6 (KOR [4]; time 24 min): 1.091 and 1.078 and 1.081 and 1.076
BRET, KOR + Nb6 (KOR [4]; time 25 min): 1.086 and 1.081 and 1.078 and 1.0719
BRET, KOR + Nb6 (KOR [4]; time 26 min): 1.084 and 1.082 and 1.088 and 1.07
BRET, KOR + Nb6 (KOR [4]; time 27 min): 1.079 and 1.0834 and 1.085 and 1.083
BRET, KOR + Nb6 (KOR [4]; time 28 min): 1.084 and 1.076 and 1.086 (2×)
BRET, KOR + Nb6 (KOR [4]; time 29 min): 1.0858 and 1.081 (2×) and 1.075
BRET, KOR + Nb39 (KOR [5]; time 5 min): 0.0262 and 0.02211 and 0.02102 and 0.02289
BRET, KOR + Nb39 (KOR [5]; time 6 min): 0.3036 and 0.3141 and 0.3188 and 0.3115
BRET, KOR + Nb39 (KOR [5]; time 7 min): 0.3004 and 0.3137 and 0.3136 and 0.3142
BRET, KOR + Nb39 (KOR [5]; time 8 min): 0.2978 and 0.3081 and 0.3108 and 0.3153
BRET, KOR + Nb39 (KOR [5]; time 9 min): 0.2922 and 0.311 and 0.3085 and 0.3127
BRET, KOR + Nb39 (KOR [5]; time 10 min): 0.2996 and 0.3174 and 0.3198
BRET, KOR + Nb39 (KOR [5]; time 11 min): 0.2967 and 0.3155 and 0.3205
BRET, KOR + Nb39 (KOR [5]; time 12 min): 0.298 and 0.3156 and 0.3148 and 0.3226
BRET, KOR + Nb39 (KOR [5]; time 13 min): 0.2971 and 0.3177 and 0.3205 and 0.3168
BRET, KOR + Nb39 (KOR [5]; time 14 min): 0.2971 and 0.3134 and 0.3132 and 0.3235
BRET, KOR + Nb39 (KOR [5]; time 15 min): 0.2986 and 0.3191 and 0.3238 and 0.3265
BRET, KOR + Nb39 (KOR [5]; time 16 min): 0.2964 and 0.3182 and 0.3184 and 0.324
BRET, KOR + Nb39 (KOR [5]; time 17 min): 0.3018 and 0.3186 and 0.3227 and 0.3317
BRET, KOR + Nb39 (KOR [5]; time 18 min): 0.3003 and 0.3158 and 0.3185 and 0.326
BRET, KOR + Nb39 (KOR [5]; time 19 min): 0.3043 and 0.3186 and 0.3228 and 0.323
BRET, KOR + Nb39 (KOR [5]; time 20 min): 0.2961 and 0.3231 and 0.3183 and 0.3325
BRET, KOR + Nb39 (KOR [5]; time 21 min): 0.3008 and 0.3186 and 0.3235
BRET, KOR + Nb39 (KOR [5]; time 22 min): 0.3025 and 0.3173 and 0.3147 and 0.3318
BRET, KOR + Nb39 (KOR [5]; time 23 min): 0.2987 and 0.3226 and 0.3296
BRET, KOR + Nb39 (KOR [5]; time 24 min): 0.2996 and 0.3206 and 0.3159 and 0.3334
BRET, KOR + Nb39 (KOR [5]; time 25 min): 0.3041 and 0.3179 and 0.3117 and 0.3236
BRET, KOR + Nb39 (KOR [5]; time 26 min): 0.2994 and 0.3089 and 0.3198 and 0.3347
BRET, KOR + Nb39 (KOR [5]; time 27 min): 0.3042 and 0.3155 and 0.3211 and 0.3323
BRET, KOR + Nb39 (KOR [5]; time 28 min): 0.2989 and 0.303 and 0.3151 and 0.3345
BRET, KOR + Nb39 (KOR [5]; time 29 min): 0.2966 and 0.3193 and 0.305 and 0.3267
BRET, KOR + Nb39 (KOR [5]; time 30 min): 0.2958 and 0.3183 and 0.3167 and 0.3297

B1: Nb39-mVenus (VHH)
VHH: QVQLVESGGGLVRPGGSLRLSCVDSERTSYPMGWFRRAPGKEREFVASITWSGIDPTYADSVADRFTTSRDVANNTLYLQMNSLKHEDTAVYYCAARAPVGQSSSPYDYDYWGQGTQVTVSS
notes: nanobody chain of the cited KOR-MP1104-Nb39 structure PDB 6B73; A purified Nb39 from E. coli WK6 (no mVenus) was used at 5 µM in the radioligand assays; the functional row on it uses this id; also called positive allosteric nanobody; active-state associated nanobody; source: HEK 293T, co-transfected, in live cells; not shown: mVenus, C-terminal, kept
t1/2 of the reversal of the KOR-Nb39 association by JDTic [6]: 1.78 ± 0.25 min
